Reference: PMC8750417, “Intracellular Amplifiers of Reactive Oxygen Species Affecting Mitochondria as Radiosensitizers” (Cancers, 2021)

Assays:
A2780 cells [1] = assay: Cell viability, MTT assay, A2780; type: cell-based, human
Experimental: Determination of viability of cells in the presence of prodrugs and controls A2780 and BL-2 cells The medium was removed, and the cells were washed two times with DPBS, trypsinated, and resuspended in RPMI 1640 medium (A2780) supplemented with 5% FBS (for 24 h and 48 h assay) or 10% FBS (for 96 h assay) , 1% L-glutamine, and 1% penicillin/streptomycin.
A2780 cells: This suspension was spread in the wells of a 96 -well microtiter plate (25000 cells for A2780 per well per 100 μL) and left standing at 37 °C in the chamber filled with CO2 (5%) for overnight. Stock solutions of prodrugs of different concentra tions (1 μL, solvent dmso, final concentrations in wells were 2, 5, 10, 30, 50 μM) were added to the wells and incubated for specific periods of time. Four experiments were conducted for each concentration of the prodrug. Finally, 3-(4,5-dimethylthiazol-2-yl)-2,5-diphenyltetrazolium bromide (MTT, 20 μL of the solution prepared by dissolving MTT (5 mg) in DPBS buffer (1 mL)) was added to each well, incubated for 3 h, treated with sodium dodecyl sulfate (SDS) solution (90 μL, 10% solution in 0.01 M aqueous HC l), and incubated overnight. Afterward, the intensity of the absorbance at 590 nm was measured.
MTT is converted in live cells to blue dye with the absorbance maximum λ max at 590 nm.
The absorbance at 690 nm was taken as a baseline value. The baseline corrected absorbance at 590 nm (A(590 nm) − A(690 nm)) was applied to calculate the relative number of viable cells. IC50 values were determined by fitting the experimental data expressing the number of viable cells (%, Y-axis) versus drug concentration (μM, X-axis) with a line curve and the X-axis value corresponding to 50% viability was considered as IC50 value according to the line curve (Figure S50, Table S2). […]

[2] = Solubility in RPMI 1640 medium, precipitation seen by bright field optical microscopy; conditions: DMSO 1%; for Solubility: 48 h incubation in RPMI 1640, FBS 5%, first signs of precipitation; for first signs of precipitation: immediately after dilution in RPMI 1640, FBS 5%
Experimental: The latter medium was selected, since we used it for the cellular assays. […] Then we monitored the formation of (not detectable in the previous experiment) aggregated species in prodrug solutions that appeared transparent (concentrations < 50 µM) by using dynamic light scattering. […]
Solubility of drugs in aqueous buffers
Observing prodrug precipitation by using bright field optical microscopy […]
glutamine (1 %), and penicillin/streptomycin (1 %) was filled into 96-well microtiter plates (100 µL for each well) and compounds in DMSO stock solution (1 µL) were added. Each well was monitored by using bright field optical microscopy both immediately after […]

[3] = Prodrug-induced generation of ROS in cell free settings (DCFH/H2O2); conditions: for ROS Release Efficacy: relative acceleration of the rate of DCFH fluorescence increase with H2O2, pH 7.4, FeSO4 = 1.0
Excerpt: As previously reported, the NAAF-prodrugs react with ROS like H2O2, first leading to the cleavage of the B-C-bond with the formation of the phenol derivatives (product 2c-1, Figure S49, SI). The latter compounds exist in equilibrium with the corresponding phenolates. The phenolates undergo the spontaneous 1,6-elimination of para-quinone methide (QM) followed by the release of CO2 with the formation of the N-alkylaminoferrocene NAAF drugs (product 2c-2, Figure S46, SI). By using electrospray ionization mass spectrometry (ESI–MS), we confirmed for one representative prodrug 2c that it reacts with H2O2 in cell free settings according to this common mechanism (ESI-MS, Figures S46–S48, SI). The NAAF is further oxidized by H2O2 or molecular oxygen with the generation of drug NAAF^+ and highly toxic HO• or/and O2^•−. Finally, the NAAF^+ is reduced by glutathione (GSH), thereby closing the catalytic cycle, in which the NAAF acts as a catalyst. We evaluated the formation of HO• or/and O2^•− by using 2′,7′-dichlorodihydrofluorescein (DCFH) as a probe (Table 1, Figure S49, SI). This probe is oxidized to the fluorescent product 2′,7′-dichlorofluorescein (DCF) in the presence of HO• or/and O2^•−. […] The lower activity of 2c and 2d correlates with their higher lipophilicity and their correspondingly higher propensity to form aggregates in aqueous solution (Figure S45, SI).
Prodrug-induced generation of ROS in cell free settings
2',7'-Dichlorodihydrofluorescein diacetate (DCFH-DA, 4.9 mg) was dissolved in DMF (100 μL) and mixed with aqueous NaOH (0.1 M, 900 μL). The resulting mixture was incubated for 30 min at 22 °C in the dark to obtain a stock solution of 2',7'-dichlorodihydrofluorescein (DCFH, 10 mM). Next, DCFH (1 µL ) was added to the solution containing MOPS buf fer (100 mM, pH 7.4), N,N,N'N' -e thylenediaminetetraacetic acid (EDTA , 10 mM) and glutathione (GSH , 5 mM) (1 mL, final concentration of DCFH 10 μM). The reaction mixture was heated to 37 °C and H2O2 (1 µL, final concentration 10 mM) was added. The reaction was monitored by fluorescence spectroscopy: λex = 501 nm, λem = 523 nm. After around 5 min, prodrugs (1 mM in DMF, 10 μL) or positive control FeSO4 (1 mM in water, 10 μL) were added, and the fluorescence monitoring was continued until the fluorescence signal growth was stalled after approximately 100 to 300 min. A representative kinetics of ROS […]
The data are presented in Table 1 as relative acceleration of the rate of the fluorescence increase, where the rate of the fluorescence increase obtained in the presence of positive control FeSO4 was set […]
y = a time + b (a = (dF/dt) , min-1)
Figure S49. Increase of the fluorescence intensity (λex = 501 nm, λem = 523 nm) upon oxidation of DCFH by H2O2 in the presence of FeSO4. Experimental details are provided in the description above. The time point of the FeSO4 addition is indicated with a black […]
(also on this page, place not known: ° C µL) buffer N,N,N'N'-ethylenediaminetetraacetic (EDTA, (GSH, ° C FeSO 4 (λ ex λ em Fluorescence (a.u.) (dF/dt)0, min -1 Addition of)
(1 picture or pasted object on this page, not shown here)

[4] = system: chronic lymphocytic leukemia (CLL) cells; assay: Viability of primary CLL cells (CellTiter Glo); type: cell-based, human; conditions: viability of CLL vs MNC, 48 h; for 2c at 3.3 and 10 µM
Excerpt: Determination of viability of primary cancer (CLL) and normal (MNC) cells in the […]
Clinical samples from chronic lymphocytic leukemia (CLL) patients (N=6, CLL cells) and healthy donors (N=6; peripheral blood mononuclear cells, MNCs) were collected at the University Hospital Heidelberg, Germany. Informed consent was obtained in accordance with the Declaration of Helsinki. Sample collection and analysis was approved by the ethics committee of the University of Heidelberg (S-254/2016). Blood was separated by a Ficoll gradient (GE Healthcarey), and cells were cryopreserved. Drug sensitivity screening was performed in 384-well format (Greiner Bio One) with 10 different prodrug […]
4x10^4 cells per well. Cells were cultured in RPMI-1640 (Invitrogen) supplemented with penicillin/streptomycin (Invitrogen), L-glutamine (Invitrogen) and 10% pooled and heat inactivated AB-type human serum (Sigma-Aldrich). Cell viability was assessed by quantification of ATP (CellTiter Glo®, Promega) 48 hours after drug application.
Luminescence was measured on a Tecan Infinite F200 Microplate Reader. Viability was calculated as % of solvent (DMSO) treated control. Representative plots of cell viability

[5] = n-octanol/water partition coefficient (logP) by RP-TLC; type: physicochemical; conditions: for logP (Hydrolyzed Prodrug): n-octanol/water partition coefficient of the hydrolyzed boronic acid (_BA) form of the prodrug named; for logP (Prodrug): n-octanol/water partition coefficient of the intact prodrug (or control 2c_c), RP-TLC, MOPS pH 7.4
Experimental: Determination of n-octanol/water partition coefficients (LogP) […]
mixture of dichloromethane/CH3OH at proper concentrations. Commercially available […]
7.4) (6/4, v/v) was used. The solvent migration distance was around 4.5 cm. The plates […]
and its distance was manually measured. All measurements were done in at least triplicate and average values were used in further calculations. All experiments were performed at ambient temperature (22 ± 2 °C). […]

A2780 cells [6] = assay: Mitochondrial ROS (MitoSOX, flow cytometry), A2780; type: cell-based, human
Experimental: Monitoring mitochondrial ROS (mROS)
A2780 cells were seeded in RPMI 1640 medium containing 5% FBS, 1% L-glutamine and 1% penicillin/streptomycin in a 96-well microtiter plate (total volume 0.1 mL) at a density of 250 cells/µL one day before the experiment. On the day of the experiment, the cells were washed with DPBS buffer and a fresh portion of RPMI 1640 medium containing 5% FBS, 1% L-glutamine and 1% penicillin/streptomycin (100 µL) was added followed by addition of compounds (1 μL of stock solutions in DMSO, final concentration of the prodrugs was 5, 10 μM and 30 μM) or carrier only (DMSO, 1 µL, final concentration 1 %, v/v) and incubation for 1 or 2 h in the dark chamber filled with CO 2 (5%) at 37 °C. After that, the cells were washed twice with DPBS buffer and the medium was replaced with HBSS (Hanks' Balanced Salt solution, 50 μL) containing MitoSOX (Red Mitochondrial Superoxide Indicator, Thermo-Fisher, Catalog number M36008, final concentration 5 µM obtained by adding 0.5 µ L of the 0.5 mM stock solution of MitoSOX in DMSO to the HBSS ) […]
(1 picture or pasted object on this page, not shown here) […]
and the cells were incubated in the dark chamber filled with CO2 (5%) at 37 °C for 20 min.
Next, the cells were detached from the culture dish using trypsin/EDTA (0.025%/0.01%, v/v, 50 µL). The cells were re-suspended in RPMI 1640 medium containing 5% FBS, 1% L-glutamine and 1% penicillin/streptomycin (100 µL). Finally, the fluorescence of live cells (λex = 488 nm, λem = 578 nm) in the suspensions was determined by using flow cytometry

| SMILES | IC50 (A2780 cells [1]; A2780, 24 h incubation) [µM] | IC50 (A2780 cells [1]; A2780, 48 h incubation) [µM] | IC50 (A2780 cells [1]; A2780, 96 h incubation) [µM] | Solubility [2] [µM] | first signs of precipitation [2] [µM] | ROS Release Efficacy [3] | cancer cell specificity, primary CLL cells vs MNCs [4] | logP (Hydrolyzed Prodrug) [5] | logP (Prodrug) [5] | cell viability at which the effect is saturated (A2780 cells [1]; A2780, 24 h) [%] | cell viability at which the effect is saturated (A2780 cells [1]; A2780, 48 h) [%] | cell viability at which the effect is saturated (A2780 cells [1]; A2780, 96 h) [%] | ROS-generating activity, fold lower than that of 2a and 2b ([3]; cell free DCFH assay) | mitochondrial ROS (mROS) vs non-treated cells (A2780 cells [6]) |
| --- | --- | --- | --- | --- | --- | --- | --- | --- | --- | --- | --- | --- | --- | --- |
| CC1(C)OB(c2ccc(COC(=O)N(Cc3cn(Cc4ccccc4)nn3)[c-]3cccc3)cc2)OC1(C)C.[Fe+2].c1cc[cH-]c1 [2a] | 23.7 ± 0.6 | 16.2 ± 1.8 | 10.5 ± 0.7 | 100 | 50 | 0.74 ± 0.19 | some specificity towards primary CLL cells | 2.92 ± 0.14 | 5.27 ± 0.10 |  |  |  |  |  |
| CC1(C)OB(c2ccc(COC(=O)N(Cc3cn(CCc4ccccc4)nn3)[c-]3cccc3)cc2)OC1(C)C.[Fe+2].c1cc[cH-]c1 [2b] | 24.7 ± 0.6 | 18.5 ± 1.3 | 12 ± 3 | 100 | 50 | 0.76 ± 0.19 | some specificity towards primary CLL cells | 3.10 ± 0.12 | 5.37 ± 0.10 |  |  |  |  |  |
| CN(C)C(=O)c1ccc(COC(=O)N(Cc2cn(Cc3ccc(Cn4cc(Cc5ccccc5)nn4)cc3)nn2)[c-]2cccc2)cc1.[Fe+2].c1cc[cH-]c1 [2c_c] |  |  | 6.1 ± 1.5 | 55 ± 5 |  | 0.050 ± 0.003 |  |  | 3.90 ± 0.08 |  |  |  |  |  |
| CC1(C)OB(c2ccc(COC(=O)N(Cc3cn(Cc4ccc(Cn5cc(CCc6ccccc6)nn5)cc4)nn3)[c-]3cccc3)cc2)OC1(C)C.[Fe+2].c1cc[cH-]c1 [2d] | > 30 | > 30 | 8.3 ± 1.5 | 30 | 30 | 0.37 ± 0.13 | some specificity towards primary CLL cells | 3.42 ± 0.14 | 5.56 ± 0.14 | 70 | 50 | 43 | ~ 2 fold |  |
| CC1(C)OB(c2ccc(COC(=O)N[c-]3cccc3)cc2)OC1(C)C.[Fe+2].c1cc[cH-]c1 [5a] |  |  |  |  |  |  |  |  |  |  |  |  |  | substantially weaker |
